# Measurements taken from the NIST ThermoML archive (doi:10.1021/je200309v).
# Numbers after ± are expanded uncertainties.
# Assay: mn = molality of the nth substance listed, in mol/kg
# Conditions: 101 kPa, Liquid, Alternating current cell with electrodes
structure (smiles),measurement,setting,value
CC[N+](CC)(CC)CC.F[B-](F)(F)F [tetraethylammonium tetrafluoroborate] + CC1COC(=O)O1,electrical conductivity,"253.15 K, m1 = 0.1593",0.1317 ± 0.0013 S/m
same,electrical conductivity,"253.15 K, m1 = 0.461",0.278 ± 0.0028 S/m
same,electrical conductivity,"253.15 K, m1 = 0.5658",0.3133 ± 0.0031 S/m
same,electrical conductivity,"253.15 K, m1 = 0.7282",0.3523 ± 0.0035 S/m
same,electrical conductivity,"253.15 K, m1 = 0.8234",0.366 ± 0.0037 S/m
same,electrical conductivity,"253.15 K, m1 = 0.9666",0.3749 ± 0.0037 S/m
same,electrical conductivity,"253.15 K, m1 = 1.186",0.359 ± 0.0036 S/m
same,electrical conductivity,"273.15 K, m1 = 0.1593",0.239 ± 0.0024 S/m
same,electrical conductivity,"273.15 K, m1 = 0.461",0.519 ± 0.0052 S/m
same,electrical conductivity,"273.15 K, m1 = 0.5658",0.591 ± 0.0059 S/m
same,electrical conductivity,"273.15 K, m1 = 0.7282",0.676 ± 0.0068 S/m
same,electrical conductivity,"273.15 K, m1 = 0.8234",0.712 ± 0.0071 S/m
same,electrical conductivity,"273.15 K, m1 = 0.9666",0.745 ± 0.0075 S/m
same,electrical conductivity,"273.15 K, m1 = 1.186",0.75 ± 0.0075 S/m
same,electrical conductivity,"273.15 K, m1 = 1.425",0.689 ± 0.007 S/m
same,electrical conductivity,"293.15 K, m1 = 0.1593",0.364 ± 0.0036 S/m
same,electrical conductivity,"293.15 K, m1 = 0.461",0.812 ± 0.0081 S/m
same,electrical conductivity,"293.15 K, m1 = 0.5658",0.929 ± 0.0093 S/m
same,electrical conductivity,"293.15 K, m1 = 0.7282",1.07 ± 0.011 S/m
same,electrical conductivity,"293.15 K, m1 = 0.8234",1.128 ± 0.011 S/m
same,electrical conductivity,"293.15 K, m1 = 0.9666",1.19 ± 0.012 S/m
same,electrical conductivity,"293.15 K, m1 = 1.186",1.201 ± 0.012 S/m
same,electrical conductivity,"293.15 K, m1 = 1.425",1.116 ± 0.011 S/m
same,electrical conductivity,"313.15 K, m1 = 0.1593",0.516 ± 0.0052 S/m
same,electrical conductivity,"313.15 K, m1 = 0.461",1.16 ± 0.012 S/m
same,electrical conductivity,"313.15 K, m1 = 0.5658",1.333 ± 0.013 S/m
same,electrical conductivity,"313.15 K, m1 = 0.7282",1.543 ± 0.015 S/m
same,electrical conductivity,"313.15 K, m1 = 0.8234",1.635 ± 0.016 S/m
same,electrical conductivity,"313.15 K, m1 = 0.9666",1.73 ± 0.017 S/m
same,electrical conductivity,"313.15 K, m1 = 1.186",1.77 ± 0.018 S/m
same,electrical conductivity,"313.15 K, m1 = 1.425",1.69 ± 0.017 S/m
same,electrical conductivity,"333.15 K, m1 = 0.1593",0.678 ± 0.0068 S/m
same,electrical conductivity,"333.15 K, m1 = 0.461",1.535 ± 0.015 S/m
same,electrical conductivity,"333.15 K, m1 = 0.5658",1.76 ± 0.018 S/m
same,electrical conductivity,"333.15 K, m1 = 0.7282",2.049 ± 0.02 S/m
same,electrical conductivity,"333.15 K, m1 = 0.8234",2.18 ± 0.022 S/m
same,electrical conductivity,"333.15 K, m1 = 0.9666",2.314 ± 0.023 S/m
same,electrical conductivity,"333.15 K, m1 = 1.186",2.4 ± 0.024 S/m
same,electrical conductivity,"333.15 K, m1 = 1.425",2.307 ± 0.023 S/m
